{"source": "patent US4918193A", "about": "“Methods for preparing 3-[N-phenyl-acetylaminopiperidine]-2,6-dion” (priority 1989, dated 1990)", "key": {"[1]": {"test": "Hydrolysis of the sodium salt upon standing", "type": "physicochemical", "experimental": "Five thousand grams of 3-[N-phenylacetylaminopiperidine]-2,6-dion was pulverized in a grinder, then suspended in 44 liters of pyrogen-free water. Concentrated sodium hydroxide in pyrogen-free water was added stepwise and stirred until all the powder was dissolved. The pH of the mixture was 7.0. Activated charcoal (U.S.P.) was added and stirred for 45 minutes, and then filtered. The concentration of the filtrate was adjusted to 103 mg/ml with pyrogen free water. The filtrate was then processed according to standard U.S.P. procedure for large volume injections of single dose infusions."}, "[2]": {"test_system": "advanced neoplastic diseases", "test": "Phase I clinical studies, 500 mg capsules (Example 1)", "type": "in vivo, human", "conditions": "500 mg capsules daily", "experimental": "The phase I clinical studies with 3-[N-phenylacetylaminopiperidine]-2,6-dion 500 mg capsules involved 42 patients diagnosed with 49 types of advanced neoplastic diseases. The formulation was administered daily for from 6 to 314 days. The highest dosage taken was 288.4 mg/kg/24 hours. […] Positive clinical response was obtained in 75% of 49 treated cases."}, "[3]": {"test": "Acute toxicity in mice, intraperitoneal injection"}, "[4]": {"test_system": "human neoplastic diseases", "test": "Treatment of various human neoplastic diseases (general clinical statement)", "type": "in vivo", "experimental": "Various human neoplastic diseases were treated with 3-[N-phenylacetylaminopiperidine]-2,6-dion or its degradation products."}, "[5]": {"test_system": "Rd/3 sarcoma", "conditions": "rats, Neish, Experientia, 27: 860 (1971), cited from earlier work"}}, "note": "“Also recorded” adds a separate entry of the source. Where a name gives a salt, the structure may show the parent alone. Read-outs that look alike come from different tables or passages of the source.", "data": [{"compound": "O=C1CCC(NC(=O)Cc2ccccc2)C(=O)N1", "note": "(stereo not shown) [3-[N-phenylacetylaminopiperidine]2,6-dion sodium salt]", "values": [{"measurement": "basic hydrolysis upon standing", "setting": "[1]", "value": "undergoes basic hydrolysis to form the sodium salts of phenylacetyl glutamine and phenylacetyl isoglutamine"}]}, {"compound": "O=C1CCC(NC(=O)Cc2ccccc2)C(=O)N1", "note": "(stereo not shown) [3-[N-phenylacetylaminopiperidine]-2,6-dion]", "values": [{"measurement": "best clinical effects observed in", "setting": "[2]", "value": "chronic myelocytic leukemia and chronic lymphocytic leukemia, adenocarcinoma of the prostate, carcinoma of the breast and glioma"}, {"measurement": "desirable side effects", "setting": "[2]", "value": "decrease of plasma levels of triglycerides and cholesterol; also recorded: increase of white blood cell count, red blood cell count and platelet count; also recorded: improvement of blood clotting"}, {"measurement": "adverse reactions", "setting": "[2]; highest dosage 288.4 mg/kg/24 hours", "value": "minimal adverse reactions, including excessive gas, gastrointestinal bleeding (most likely not related to 3-[N-phenylacetylaminopiperidine]-2,6-dion but to primary disease), moderately increased blood pressure, skin rash, vertigo, hypokalemia, hypoglycemia and mild myelosuppression"}, {"measurement": "Positive clinical response", "setting": "[2]; of 49 treated cases, 6 to 314 days", "value": 75, "unit": "%"}, {"measurement": "autopsy and microscopic findings in animals which died", "setting": "[3]; HA/ICR swiss mice, intraperitoneal", "value": "congestion of the liver and marked pulmonary edema"}, {"measurement": "acute toxicity, overall", "setting": "[3]; experimental animals", "value": "very low toxicity"}, {"measurement": "observation of surviving animals", "setting": "[3]; kept one week under close observation", "value": "normal activity"}, {"measurement": "autopsy and microscopic examination of tissues of surviving animals", "setting": "[3]; sacrificed after a week, versus control uninjected subjects", "value": "identical to those of control, uninjected subjects"}, {"measurement": "usefulness / effectiveness in the treatment of human cancers", "setting": "[4]; Applicant's clinical studies", "value": "effective to some extent in aiding the regression of tumors"}, {"measurement": "regression of tumors associated with named human cancers", "setting": "[4]; cancer of esophagus, breast, bladder, colon, lung, prostate, pancreas, uterine cervix, brain, bone and lung metastases, lymphatic lymphoma", "value": "with success in the regression of tumors"}]}, {"compound": "O=C(O)Cc1ccccc1", "note": "[sodium salt of phenylacetic acid]", "values": [{"measurement": "effect on tumor growth, Rd/3 sarcoma", "setting": "[5]", "value": "failed to inhibit tumor growth"}, {"measurement": "effect on tumor growth, Rd/3 sarcoma", "setting": "[5]; listed as phenylacetic acid", "value": "some enhancement of tumor growth"}]}]}
